Read-outs that look alike come from different tables or passages of the source. Where a SMILES comes first, the peptide text is derived from it. Side-chain parts run from the residue outwards. [ ]: non-standard residue; d: D form. The star is where a group is joined. αMePhe(2-F) = C[C@](N)(Cc1ccccc1F)C(=O)O; C14 diacid = O=C(O)CCCCCCCCCCCCC(=O)*; αMeY = C[C@](N)(Cc1ccc(O)cc1)C(=O)O; αMeL = CC(C)C[C@](C)(N)C(=O)O; Orn = NCCC[C@H](N)C(=O)O; AEEA = NCCOCCOCC(=O)O; Aib = CC(C)(N)C(=O)O
What was measured:
Type in all cases: cell-based
hGIPR = biological target: T1, hGIPR (Homo sapiens, UniProt P48546); test: Functional cAMP formation (HTRF) in HEK-293 clonal cells expressing hGIPR, 0.1% bovine casein, without or with 1.0% human serum albumin; conditions: 37° C.; for Emax: percent of maximal response to GIP(1-42)NH2, read-out: hGIPR Emax, % ± SEM; for EC50: geometric mean, read-out: hGIPR EC50, nM (SEM, n)
T1 construct: expressed in transfected cells
T1 sequence (P48546 22-466): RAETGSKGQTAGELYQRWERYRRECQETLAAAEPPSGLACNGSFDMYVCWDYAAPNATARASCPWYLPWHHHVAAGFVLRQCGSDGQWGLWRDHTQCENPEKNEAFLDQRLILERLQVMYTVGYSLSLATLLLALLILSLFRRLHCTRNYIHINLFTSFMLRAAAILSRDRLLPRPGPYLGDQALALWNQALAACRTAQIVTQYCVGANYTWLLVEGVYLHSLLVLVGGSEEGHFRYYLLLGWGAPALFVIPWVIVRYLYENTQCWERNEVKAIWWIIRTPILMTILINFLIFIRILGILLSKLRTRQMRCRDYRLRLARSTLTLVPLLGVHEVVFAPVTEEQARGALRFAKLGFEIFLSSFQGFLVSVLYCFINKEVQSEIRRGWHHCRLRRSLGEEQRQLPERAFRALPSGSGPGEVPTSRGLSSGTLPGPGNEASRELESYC
Method in brief: (§1)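 Cells were stimulated with peptide for 30 min at 37° C, then intracellular cAMP was measured by competitive HTRF (665/620 nm ratio) and converted to nM using a cAMP standard curve. Relative EC50 and Emax came from four-parameter logistic fits of percent maximal response against peptide concentration.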

hGCGR = biological target: T2, hGCGR (Homo sapiens, UniProt P47871); test: Functional cAMP formation (HTRF) in HEK-293 clonal cells expressing hGCGR, 0.1% bovine casein, without or with 1.0% human serum albumin; conditions: 37° C., geometric mean, read-out: hGCGR EC50, nM (SEM, n)
T2 construct: expressed in transfected cells
Method in brief: as §1

hGLP-1R = hGLP-1R (Homo sapiens, UniProt P43220); test: Functional cAMP formation (HTRF) in HEK-293 clonal cells expressing hGLP-1R, 0.1% bovine casein, without or with 1.0% human serum albumin; design: expressed in transfected cells; conditions: 37° C.; for Emax: percent of maximal response to GLP-1(7-36)NH2, read-out: hGLP-1R Emax, % ± SEM; for EC50: geometric mean, read-out: hGLP-1R EC50, nM (SEM, n)
Method in brief: as §1

[1] = HEK293, 0.1% bovine casein and 1.0% human serum albumin
[2] = cAMP, 0.1% bovine casein (no human serum albumin)
[3] = 0.1% bovine casein and 1.0% human serum albumin
[4] = HEK293, cAMP, 0.1% bovine casein, arithmetic mean

T2 sequence (P47871 26-477): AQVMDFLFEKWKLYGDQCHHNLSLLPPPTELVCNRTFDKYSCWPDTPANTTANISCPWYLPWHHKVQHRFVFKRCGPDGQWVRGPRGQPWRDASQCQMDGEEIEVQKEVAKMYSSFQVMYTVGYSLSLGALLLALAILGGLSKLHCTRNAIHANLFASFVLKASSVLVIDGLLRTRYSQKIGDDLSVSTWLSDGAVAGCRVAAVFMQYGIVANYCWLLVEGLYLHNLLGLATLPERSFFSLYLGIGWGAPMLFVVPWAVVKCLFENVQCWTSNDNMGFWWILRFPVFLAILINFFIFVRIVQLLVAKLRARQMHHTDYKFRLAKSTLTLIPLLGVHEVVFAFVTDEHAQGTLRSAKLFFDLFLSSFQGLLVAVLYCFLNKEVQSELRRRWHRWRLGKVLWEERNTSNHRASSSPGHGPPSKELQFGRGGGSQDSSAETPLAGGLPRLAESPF
Sequence of hGLP-1R (P43220 24-463): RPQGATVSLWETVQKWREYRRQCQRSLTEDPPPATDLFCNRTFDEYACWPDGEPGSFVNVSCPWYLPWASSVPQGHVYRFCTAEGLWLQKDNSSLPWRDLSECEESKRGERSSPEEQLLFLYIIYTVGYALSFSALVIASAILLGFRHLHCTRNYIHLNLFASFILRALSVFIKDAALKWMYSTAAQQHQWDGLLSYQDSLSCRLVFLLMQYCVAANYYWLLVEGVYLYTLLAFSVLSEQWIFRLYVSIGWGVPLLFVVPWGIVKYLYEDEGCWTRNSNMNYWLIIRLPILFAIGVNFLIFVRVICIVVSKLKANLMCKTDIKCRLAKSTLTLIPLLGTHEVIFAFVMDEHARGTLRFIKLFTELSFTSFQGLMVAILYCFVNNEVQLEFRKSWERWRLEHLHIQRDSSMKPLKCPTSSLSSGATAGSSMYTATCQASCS

In the case of `CC[C@H](C)[C@H](NC(=O)[C@H](CCCN)NC(=O)[C@H](CC(=O)O)NC(=O)[C@H](CC(C)C)NC(=O)[C@](C)(CC(C)C)NC(=O)[C@@H](NC(=O)[C@H](CO)NC(=O)[C@H](Cc1ccc(OC)cc1)NC(=O)[C@H](CC(=O)O)NC(=O)[C@H](CO)NC(=O)[C@@H](NC(=O)[C@](C)(Cc1ccccc1F)NC(=O)[C@@H](NC(=O)CNC(=O)[C@H](CCC(=O)O)NC(=O)C(C)(C)NC(=O)[C@@H](N)Cc1ccc(O)cc1)[C@@H](C)O)[C@@H](C)O)[C@@H](C)CC)C(=O)N[C@@H](C)C(=O)N[C@@H](CCC(N)=O)C(=O)NC(C)(C)C(=O)N[C@@H](CCCCNC(=O)COCCOCCNC(=O)COCCOCCNC(=O)CCCCCCCCCCCCC(=O)O)C(=O)N[C@@H](Cc1ccccc1)C(=O)N[C@H](C(=O)N[C@H](CCC(=O)O)C(=O)N[C@@](C)(Cc1ccc(O)cc1)C(=O)N[C@@H](CC(C)C)C(=O)N[C@H](C(=O)N[C@@H](CCC(=O)O)C(=O)NCC(=O)NCC(=O)N1CCC[C@H]1C(=O)N[C@@H](CO)C(=O)N[C@@H](CO)C(=O)NCC(=O)N[C@@H](C)C(=O)N1CCC[C@H]1C(=O)N1CCC[C@H]1C(=O)N1CCC[C@H]1C(=O)N[C@@H](CO)C(=O)N[C@@H](CCCCNC(=O)COCCOCCNC(=O)COCCOCCNC(=O)CCCCCCCCCCCCC(=O)O)C(N)=O)[C@@H](C)CC)[C@@H](C)CC` [Example 268] (H-Y[Aib]EGT[αMePhe(2-F)]TSDY(Me)SI[αMeL]LD[Orn]IAQ[Aib]K([AEEA-AEEA-C14 diacid])FI[dE][αMeY]LIEGGPSSGAPPPSK([AEEA-AEEA-C14 diacid])-NH2), the Emax (hGIPR; [1]) is reported as 92.3%, the EC50 (hGIPR; [2]) is reported as 0.0265 nM and the EC50 (hGCGR; [3]) is reported as > 9950 nM. The EC50 (hGCGR; [2]) was > 9950 nM and the Emax (hGLP-1R; [4]) was 112%.

Molecule `CCCC[C@H](NC(=O)[C@H](CC(=O)O)NC(=O)[C@H](CO)NC(=O)[C@@H](NC(=O)[C@](C)(Cc1ccccc1F)NC(=O)[C@@H](NC(=O)CNC(=O)[C@H](CCC(=O)O)NC(=O)C(C)(C)NC(=O)[C@@H](N)Cc1ccc(O)cc1)[C@@H](C)O)[C@@H](C)O)C(=O)N[C@@H](CO)C(=O)N[C@H](C(=O)N[C@@](C)(CC(C)C)C(=O)N[C@@H](CC(C)C)C(=O)N[C@@H](CC(=O)O)C(=O)N[C@@H](CCCN)C(=O)N[C@H](C(=O)N[C@@H](C)C(=O)N[C@@H](CCC(N)=O)C(=O)NC(C)(C)C(=O)N[C@@H](CCC(=O)O)C(=O)N[C@@H](Cc1ccccc1)C(=O)N[C@H](C(=O)N[C@@H](CCCCNC(=O)COCCOCCNC(=O)COCCOCCNC(=O)CC[C@H](NC(=O)CCCCCCCCCCCCC(=O)O)C(=O)O)C(=O)N[C@@](C)(Cc1ccc(O)cc1)C(=O)N[C@@H](CC(C)C)C(=O)N[C@H](C(=O)N[C@@H](CCCCNC(=O)COCCOCCNC(=O)COCCOCCNC(=O)CC[C@H](NC(=O)CCCCCCCCCCCCC(=O)O)C(=O)O)C(=O)NCC(=O)NCC(=O)N1CCC[C@H]1C(=O)N[C@@H](CO)C(=O)N[C@@H](CO)C(=O)NCC(=O)N[C@@H](C)C(=O)N1CCC[C@H]1C(=O)N1CCC[C@H]1C(=O)N1CCC[C@H]1C(=O)N[C@@H](CO)C(N)=O)[C@@H](C)CC)[C@@H](C)CC)[C@@H](C)CC)[C@@H](C)CC` [Example 269] has an EC50 (hGIPR; [3]) of 2.65 nM, an Emax (hGIPR; [1]) of 87.3% and an Emax (hGIPR; [4]) of 95.3%. For the same molecule, the EC50 (hGCGR; [3]) was > 9950 nM, the EC50 (hGCGR; [2]) was > 9950 nM and the Emax (hGLP-1R; [1]) was 105%. The Emax (hGLP-1R; [4]) was 96.5% and the EC50 (hGLP-1R; [2]) was 1.72 nM.

For `CC[C@H](C)[C@H](NC(=O)[C@H](CCCN)NC(=O)[C@H](CC(=O)O)NC(=O)[C@H](CC(C)C)NC(=O)[C@](C)(CC(C)C)NC(=O)[C@@H](NC(=O)[C@H](CO)NC(=O)[C@H](CCc1ccc(O)cc1)NC(=O)[C@H](CC(=O)O)NC(=O)[C@H](CO)NC(=O)[C@@H](NC(=O)[C@](C)(Cc1ccccc1F)NC(=O)[C@@H](NC(=O)CNC(=O)[C@H](CCC(=O)O)NC(=O)C(C)(C)NC(=O)[C@@H](N)Cc1ccc(O)cc1)[C@@H](C)O)[C@@H](C)O)[C@@H](C)CC)C(=O)N[C@@H](C)C(=O)N[C@@H](CCC(N)=O)C(=O)NC(C)(C)C(=O)N[C@@H](CCC(=O)O)C(=O)N[C@@H](Cc1ccccc1)C(=O)N[C@H](C(=O)N[C@@H](CCCCNC(=O)COCCOCCNC(=O)COCCOCCNC(=O)CC[C@H](NC(=O)CCCCCCCCCCCCC(=O)O)C(=O)O)C(=O)N[C@@](C)(Cc1ccc(O)cc1)C(=O)N[C@@H](CC(C)C)C(=O)N[C@H](C(=O)N[C@@H](CCCCNC(=O)COCCOCCNC(=O)COCCOCCNC(=O)CC[C@H](NC(=O)CCCCCCCCCCCCC(=O)O)C(=O)O)C(=O)NCC(=O)NCC(=O)N1CCC[C@H]1C(=O)N[C@@H](CO)C(=O)N[C@@H](CO)C(=O)NCC(=O)N[C@@H](C)C(=O)N1CCC[C@H]1C(=O)N1CCC[C@H]1C(=O)N1CCC[C@H]1C(=O)N[C@@H](CO)C(N)=O)[C@@H](C)CC)[C@@H](C)CC` [Example 270], the Emax (hGIPR; [1]) was 80.9%, the Emax (hGIPR; [4]) was 91.7% and the EC50 (hGCGR; [3]) was > 9950 nM. For the same molecule, the EC50 (hGCGR; [2]) was > 9950 nM, the EC50 (hGLP-1R; [3]) was 32.6 nM and the Emax (hGLP-1R; [1]) was 111%. It also gave an Emax (hGLP-1R; [4]) of 97%.

With `CCCC[C@H](NC(=O)[C@H](CC(=O)O)NC(=O)[C@H](CO)NC(=O)[C@@H](NC(=O)[C@](C)(Cc1ccccc1F)NC(=O)[C@@H](NC(=O)CNC(=O)[C@H](CCC(=O)O)NC(=O)C(C)(C)NC(=O)[C@@H](N)Cc1ccc(O)cc1)[C@@H](C)O)[C@@H](C)O)C(=O)N[C@@H](CO)C(=O)N[C@H](C(=O)N[C@@](C)(CC(C)C)C(=O)N[C@@H](CC(C)C)C(=O)N[C@@H](CC(=O)O)C(=O)N[C@@H](CCCN)C(=O)N[C@@H](CCCCNC(=O)COCCOCCNC(=O)COCCOCCNC(=O)CCCCCCCCCCCCC(=O)O)C(=O)N[C@@H](C)C(=O)N[C@@H](CCC(N)=O)C(=O)NC(C)(C)C(=O)N[C@@H](CCCCNC(=O)COCCOCCNC(=O)COCCOCCNC(=O)CCCCCCCCCCCCC(=O)O)C(=O)N[C@@H](Cc1ccccc1)C(=O)N[C@H](C(=O)N[C@H](CCC(=O)O)C(=O)N[C@@](C)(Cc1ccc(O)cc1)C(=O)N[C@@H](CC(C)C)C(=O)N[C@H](C(=O)N[C@@H](CCC(=O)O)C(=O)NCC(=O)NCC(=O)N1CCC[C@H]1C(=O)N[C@@H](CO)C(=O)N[C@@H](CO)C(=O)NCC(=O)N[C@@H](C)C(=O)N1CCC[C@H]1C(=O)N1CCC[C@H]1C(=O)N1CCC[C@H]1C(=O)N[C@@H](CO)C(N)=O)[C@@H](C)CC)[C@@H](C)CC)[C@@H](C)CC` [Example 271] the Emax (hGIPR; [1]) was 97.3%, the EC50 (hGIPR; [2]) was 0.0186 nM and the EC50 (hGCGR; [3]) was > 9950 nM. For the same molecule, the EC50 (hGCGR; [2]) was > 9950 nM, the EC50 (hGLP-1R; [3]) was 10.2 nM and the Emax (hGLP-1R; [1]) was 122%.

`CC[C@H](C)[C@H](NC(=O)[C@H](CC(C)C)NC(=O)[C@](C)(Cc1ccc(O)cc1)NC(=O)[C@@H](CCC(=O)O)NC(=O)[C@@H](NC(=O)[C@H](Cc1ccccc1)NC(=O)[C@H](CCCCNC(=O)COCCOCCNC(=O)COCCOCCNC(=O)CCCCCCCCCCCCC(=O)O)NC(=O)C(C)(C)NC(=O)[C@H](CCC(N)=O)NC(=O)[C@H](C)NC(=O)[C@H](CCCCNC(=O)COCCOCCNC(=O)COCCOCCNC(=O)CCCCCCCCCCCCC(=O)O)NC(=O)[C@H](CCCN)NC(=O)[C@H](CC(=O)O)NC(=O)[C@H](CC(C)C)NC(=O)[C@](C)(CC(C)C)NC(=O)[C@@H](NC(=O)[C@H](CO)NC(=O)[C@H](CCc1ccc(O)cc1)NC(=O)[C@H](CC(=O)O)NC(=O)[C@H](CO)NC(=O)[C@@H](NC(=O)[C@](C)(Cc1ccccc1F)NC(=O)[C@@H](NC(=O)CNC(=O)[C@H](CCC(=O)O)NC(=O)C(C)(C)NC(=O)[C@@H](N)Cc1ccc(O)cc1)[C@@H](C)O)[C@@H](C)O)[C@@H](C)CC)[C@@H](C)CC)C(=O)N[C@@H](CCC(=O)O)C(=O)NCC(=O)NCC(=O)N1CCC[C@H]1C(=O)N[C@@H](CO)C(=O)N[C@@H](CO)C(=O)NCC(=O)N[C@@H](C)C(=O)N1CCC[C@H]1C(=O)N1CCC[C@H]1C(=O)N1CCC[C@H]1C(=O)N[C@@H](CO)C(N)=O` [Example 272] gave an Emax (hGIPR; [1]) of 81.2%, an Emax (hGIPR; [4]) of 86% and an EC50 (hGIPR; [2]) of 0.0264 nM. The EC50 (hGCGR; [3]) was > 9950 nM, the EC50 (hGCGR; [2]) was > 9950 nM and the EC50 (hGLP-1R; [2]) was 0.388 nM.

Source: patent US20230265151A1, “GIP/GLP1 CO-AGONIST COMPOUNDS” (priority 2020, published 2023)
